Columns and labels:
[1] = tested on: PD-L1 aAPC/CHO-K1 cells and Jurkat-PD-1-NFAT effector cells; experiment: Nuclear factor of activated T-cells (NFAT) assay; format: cell-based
Description: The culture media of PD-L1 aAPC/CHO-K1 cells were first replaced with assay medium (RPMI1640 medium with 1% FBS). […] The assay plate was incubated at 37° C., 5% CO2 for 24 hours. […] After 8 minutes incubation at room temperature, luminescence was read at with Pherastar microplate reader (BMG Labtech). The fold of induction (FOI) was calculated based on the ratio of luminescence normalized to the DMSO wells within each assay plate. The maximum percentage of induction was reported based on the ratio between the highest FOI of each compound and the maximum FOI of control compound within each assay plate. Wells with DMSO were served as the negative controls and wells containing control compound with the highest FOI were used as positive controls. EC50 determination was performed by fitting the curve of percent control activity versus the log of the compound concentration using the GraphPad Prism 6.0 software.

[2] = tested on: U2OS/PD-L1 cells and Jurkat-PD-1-SHP cells; experiment: Src homology region 2 domain-containing phosphatase (SHP) assay; format: cell-based; details: Homo sapiens
Description: Example B. Src Homology Region 2 Domain-Containing Phosphatase (SHP) Assay
U2OS/PD-L1 cells (DiscoveRx Corporation) were maintained in McCoy's 5A medium with addition of 10% FBS, 0.25 μg/ml Puromycin. After removing the culture media, the cell medium was replaced with assay medium (RPMI1640 medium with 1% FBS). The U2OS/PD-L1 cells were then added in 384-well black clear bottom assay plate (CELLCOAT® Tissue Culture Plates, Greiner Bio-One) at 5000 cells per well in 20 μL assay medium. Test compounds were prepared by serial dilution in DMSO and 125 nL compound were first transferred to the 384 REMP plate well (Thermofisher) by ECHO liquid handler (Labcyte) followed with addition of 27.5 μL assay medium. 5 μL/well compounds in the assay medium were transferred to the cell plate with 0.05% DMSO in the final assay at 0.25 Jurkat-PD-1-SHP cells (DiscoveRx Corporation) were cultured in RPMI1640 medium supplemented with 10% FBS, 250 μg/ml Hygromycin B, 500 μg/ml G418. After the replacement of culture media with assay medium, 5,000 Jurkat-PD-1-SHP cells in 20 μL were dispensed into each well. The assay plate was incubated at 37° C., 5% CO2 for 2 hours before 2.5 μL PathHunter reagent 1 (DiscoveRx Corporation) were added to each well. […] Chemiluminescent signal was recorded with TopCount reader (Perkin Elmer) after incubation at room temperature for 1 hour. […]

Row | IC50 [2] [nM] | Structure (SMILES) | EC50 [1] [nM]
1 | – | Cn1c(C(=O)Nc2cccc(-c3cccc(NC(=O)c4nc5c(n4C)CCN(CC(C)(C)C(=O)O)C5)c3Cl)c2Cl)nc2c1CCN(CCC13CCC(C(=O)O)(CC1)C3)C2 [Example 21, 4-(2-(2-((3′-(5-(2-carboxy-2-methylpropyl)-1-methyl-4,5,6,7-tetrahydro-1H-imidazo[4,5-c]pyridine-2-carboxamido)-2,2′-dichloro-[1,1′-biphenyl]-3-yl)carbamoyl)-1-methyl-1,4,6,7-tetrahydro-5H-imidazo[4,5-c]pyridin-5-yl)ethyl)bicyclo[2.2.1]heptane-1-carboxylic acid] | 10 to 100
2 | ≤ 10 | Cn1c(C(=O)Nc2cccc(-c3cccc(NC(=O)c4nc5c(n4C)CCN(CCC46CCC(C(=O)O)(CC4)C6)C5)c3Cl)c2Cl)nc2c1CCN(CCCCC(=O)O)C2 [Example 63, 4-(2-(2-((3′-(5-(4-carboxybutyl)-1-methyl-4,5,6,7-tetrahydro-1H-imidazo[4,5-c]pyridine-2-carboxamido)-2,2′-dichloro-[1,1′-biphenyl]-3-yl)carbamoyl)-1-methyl-1,4,6,7-tetrahydro-5H-imidazo[4,5-c]pyridin-5-yl)ethyl)bicyclo[2.2.1]heptane-1-carboxylic acid] | –
